Test results: publication PMC4051504, “Structural and functional analysis of the human spliceosomal DEAD-box helicase Prp28” (Acta Crystallographica Section D: Biological Crystallography, 2014)

Biological target: T1, hPrp28ΔN (Homo sapiens, UniProt Q9BUQ8)
T1 construct: gene DDX23; helicase domain plus short N-terminal extension, residues 338-820; GST tag cleaved with PreScission protease; E. coli BL21 Star (DE3)
T1 sequence (Q9BUQ8 338-820): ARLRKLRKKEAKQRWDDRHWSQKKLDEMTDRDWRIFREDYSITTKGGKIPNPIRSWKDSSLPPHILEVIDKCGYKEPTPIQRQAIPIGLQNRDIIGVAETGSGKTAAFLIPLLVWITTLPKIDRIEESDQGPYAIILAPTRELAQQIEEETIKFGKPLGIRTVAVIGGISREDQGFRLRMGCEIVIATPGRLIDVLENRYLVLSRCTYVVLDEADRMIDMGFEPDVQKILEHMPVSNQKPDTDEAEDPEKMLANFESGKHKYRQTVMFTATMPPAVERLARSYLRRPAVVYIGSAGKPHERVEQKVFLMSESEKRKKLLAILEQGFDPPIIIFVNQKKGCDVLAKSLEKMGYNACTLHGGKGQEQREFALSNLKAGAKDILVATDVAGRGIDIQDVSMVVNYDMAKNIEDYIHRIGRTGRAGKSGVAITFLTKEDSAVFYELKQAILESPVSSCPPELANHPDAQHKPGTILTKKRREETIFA
Test: fluorescence titration, Trp emission at […] nm (excitation […] nm)
Assay type: binding

CNc1ccccc1C(=O)O[C@H]1[C@@H](O)[C@H](n2cnc3c(N)ncnc32)O[C@@H]1CO[P@@](=O)(O)O[P@](=O)(O)OP(=O)(O)O [mant-ATP]
Kd: > 400 µM
